# Measured values reported in PubChem BioAssay (NCI).
#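 Briefly, cells in 96-well plates were exposed to five compound concentrations for 48 h, and endpoints were estimated by linear interpolation. GI50 is the concentration that inhibits growth by half. Definition used: TGI = concentration required for complete inhibition of growth.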
# Columns and labels:
# Test in all cases: NCI-60 cell line screen, 48 h
# LOX IMVI melanoma = test system: LOX IMVI melanoma
# HCT-15 colon = test system: HCT-15 colon
# SF-268 CNS = test system: SF-268 CNS
# UACC-257 melanoma = test system: UACC-257 melanoma
# SK-MEL-5 melanoma = test system: SK-MEL-5 melanoma
# UO-31 renal = test system: UO-31 renal
# M14 melanoma = test system: M14 melanoma
# K-562 leukemia = test system: K-562 leukemia
# RXF 393 renal = test system: RXF 393 renal
# MDA-MB-231 breast = test system: MDA-MB-231 breast
# CAKI-1 renal = test system: CAKI-1 renal
# SK-OV-3 ovarian = test system: SK-OV-3 ovarian
# CCRF-CEM leukemia = test system: CCRF-CEM leukemia
# NCI-H226 lung = test system: NCI-H226 lung
# T-47D breast = test system: T-47D breast
# MALME-3M melanoma = test system: MALME-3M melanoma
# HCT-116 colon = test system: HCT-116 colon
# PC-3 prostate = test system: PC-3 prostate
# OVCAR-4 ovarian = test system: OVCAR-4 ovarian
# HS 578T breast = test system: HS 578T breast
# ACHN renal = test system: ACHN renal
# SN12C renal = test system: SN12C renal
# NCI-H23 lung = test system: NCI-H23 lung
# BT-549 breast = test system: BT-549 breast
# OVCAR-3 ovarian = test system: OVCAR-3 ovarian
# IGROV1 ovarian = test system: IGROV1 ovarian
# NCI/ADR-RES ovarian = test system: NCI/ADR-RES ovarian
# MCF7 breast = test system: MCF7 breast
# KM12 colon = test system: KM12 colon
# SF-539 CNS = test system: SF-539 CNS
# MDA-MB-435 = test system: MDA-MB-435
# NCI-H522 lung = test system: NCI-H522 lung
# OVCAR-8 ovarian = test system: OVCAR-8 ovarian
# UACC-62 melanoma = test system: UACC-62 melanoma
# SW-620 colon = test system: SW-620 colon
# 786-0 renal = test system: 786-0 renal
# HOP-62 NSCLC = test system: HOP-62 NSCLC
# RPMI-8226 leukemia = test system: RPMI-8226 leukemia
# SK-MEL-28 melanoma = test system: SK-MEL-28 melanoma
# SF-295 CNS = test system: SF-295 CNS
# OVCAR-5 ovarian = test system: OVCAR-5 ovarian
# HL-60(TB) leukemia = test system: HL-60(TB) leukemia
# SR leukemia = test system: SR leukemia
# SK-MEL-2 melanoma = test system: SK-MEL-2 melanoma
# NCI-H460 lung = test system: NCI-H460 lung
# A498 renal = test system: A498 renal
# HT29 colon = test system: HT29 colon
# MOLT-4 leukemia = test system: MOLT-4 leukemia
# SNB-19 CNS = test system: SNB-19 CNS
# U251 CNS = test system: U251 CNS
# HCC-2998 colon = test system: HCC-2998 colon
# SNB-75 CNS = test system: SNB-75 CNS
# DU-145 prostate = test system: DU-145 prostate
# A549 NSCLC = test system: A549 NSCLC
# COLO 205 colon = test system: COLO 205 colon
# HOP-92 NSCLC = test system: HOP-92 NSCLC
smiles,measurement,setting,value
O=C(CI)OCC(COC(=O)CI)OC(=O)CI,GI50,LOX IMVI melanoma,1.03 µM
same,TGI,LOX IMVI melanoma,3 µM
same,GI50,HCT-15 colon,1.73 µM
same,TGI,HCT-15 colon,3.61 µM
same,GI50,SF-268 CNS,13.2 µM
same,TGI,SF-268 CNS,29.5 µM
same,GI50,UACC-257 melanoma,4.06 µM
same,TGI,UACC-257 melanoma,15.4 µM
same,GI50,SK-MEL-5 melanoma,13.8 µM
same,TGI,SK-MEL-5 melanoma,27.6 µM
same,GI50,UO-31 renal,1.39 µM
same,TGI,UO-31 renal,2.84 µM
same,GI50,M14 melanoma,7.57 µM
same,TGI,M14 melanoma,22 µM
same,GI50,K-562 leukemia,2.39 µM
same,TGI,K-562 leukemia,5.73 µM
same,GI50,RXF 393 renal,2.4 µM
same,TGI,RXF 393 renal,7.55 µM
same,GI50,MDA-MB-231 breast,9.3 µM
same,TGI,MDA-MB-231 breast,24.6 µM
same,GI50,CAKI-1 renal,1.96 µM
same,TGI,CAKI-1 renal,3.91 µM
same,GI50,SK-OV-3 ovarian,17.3 µM
same,TGI,SK-OV-3 ovarian,31.1 µM
same,GI50,CCRF-CEM leukemia,1.73 µM
same,TGI,CCRF-CEM leukemia,3.95 µM
same,GI50,NCI-H226 lung,15.6 µM
same,TGI,NCI-H226 lung,38.8 µM
same,GI50,T-47D breast,1.98 µM
same,TGI,T-47D breast,4.46 µM
same,GI50,MALME-3M melanoma,1.6 µM
same,TGI,MALME-3M melanoma,3.29 µM
same,GI50,HCT-116 colon,1.67 µM
same,TGI,HCT-116 colon,3.41 µM
same,GI50,PC-3 prostate,6.46 µM
same,TGI,PC-3 prostate,20.7 µM
same,GI50,OVCAR-4 ovarian,1.8 µM
same,TGI,OVCAR-4 ovarian,4.3 µM
same,GI50,HS 578T breast,4.88 µM
same,TGI,HS 578T breast,27.7 µM
same,GI50,ACHN renal,1.84 µM
same,TGI,ACHN renal,3.37 µM
same,GI50,SN12C renal,4.01 µM
same,TGI,SN12C renal,15 µM
same,GI50,NCI-H23 lung,5.36 µM
same,TGI,NCI-H23 lung,19.6 µM
same,GI50,BT-549 breast,4.56 µM
same,TGI,BT-549 breast,15.7 µM
same,GI50,OVCAR-3 ovarian,2.07 µM
same,TGI,OVCAR-3 ovarian,3.94 µM
same,GI50,IGROV1 ovarian,1.75 µM
same,TGI,IGROV1 ovarian,3.5 µM
same,GI50,NCI/ADR-RES ovarian,18.4 µM
same,TGI,NCI/ADR-RES ovarian,45.3 µM
same,GI50,MCF7 breast,3.38 µM
same,TGI,MCF7 breast,14.8 µM
same,GI50,KM12 colon,11.7 µM
same,TGI,KM12 colon,26.8 µM
same,GI50,SF-539 CNS,13.7 µM
same,TGI,SF-539 CNS,27.2 µM
same,GI50,MDA-MB-435,10.6 µM
same,TGI,MDA-MB-435,23.5 µM
same,GI50,NCI-H522 lung,0.506 µM
same,TGI,NCI-H522 lung,1.27 µM
same,GI50,OVCAR-8 ovarian,2.53 µM
same,TGI,OVCAR-8 ovarian,6.92 µM
same,GI50,UACC-62 melanoma,3.05 µM
same,TGI,UACC-62 melanoma,12.3 µM
same,GI50,SW-620 colon,1.92 µM
same,TGI,SW-620 colon,4 µM
same,GI50,786-0 renal,2.38 µM
same,TGI,786-0 renal,6.28 µM
same,GI50,HOP-62 NSCLC,10.8 µM
same,TGI,HOP-62 NSCLC,27.8 µM
same,GI50,RPMI-8226 leukemia,2.22 µM
same,TGI,RPMI-8226 leukemia,4.96 µM
same,GI50,SK-MEL-28 melanoma,5.54 µM
same,TGI,SK-MEL-28 melanoma,16 µM
same,GI50,SF-295 CNS,16.3 µM
same,TGI,SF-295 CNS,32 µM
same,GI50,OVCAR-5 ovarian,16.4 µM
same,TGI,OVCAR-5 ovarian,32.8 µM
same,GI50,HL-60(TB) leukemia,1.99 µM
same,TGI,HL-60(TB) leukemia,4.19 µM
same,GI50,SR leukemia,2.36 µM
same,TGI,SR leukemia,7.58 µM
same,GI50,SK-MEL-2 melanoma,10.3 µM
same,TGI,SK-MEL-2 melanoma,25.5 µM
same,GI50,NCI-H460 lung,18 µM
same,TGI,NCI-H460 lung,36.9 µM
same,GI50,A498 renal,10.9 µM
same,TGI,A498 renal,26.7 µM
same,GI50,HT29 colon,2.92 µM
same,TGI,HT29 colon,8.91 µM
same,GI50,MOLT-4 leukemia,2.06 µM
same,TGI,MOLT-4 leukemia,4.57 µM
same,GI50,SNB-19 CNS,16.5 µM
same,TGI,SNB-19 CNS,32.7 µM
same,GI50,U251 CNS,11.9 µM
same,TGI,U251 CNS,25.2 µM
same,GI50,HCC-2998 colon,16.3 µM
same,TGI,HCC-2998 colon,31.3 µM
same,GI50,SNB-75 CNS,13.7 µM
same,TGI,SNB-75 CNS,29.3 µM
same,GI50,DU-145 prostate,8.62 µM
same,TGI,DU-145 prostate,22.3 µM
same,GI50,A549 NSCLC,16.8 µM
same,TGI,A549 NSCLC,35.5 µM
same,GI50,COLO 205 colon,1.88 µM
same,TGI,COLO 205 colon,3.52 µM
same,GI50,HOP-92 NSCLC,1.86 µM
same,TGI,HOP-92 NSCLC,4.03 µM
